Assay type in all cases: cell-based
In test [1] the test system is AGS (human gastric cancer cell line, KRAS G12D mutation). Put plainly: 3D cell proliferation inhibition (CellTiter-Glo), AGS. Particulars: 168 h, 3D culture, 100 nM compound, seven days, CTG. Here is the method: (§1) The Cell Titer-Glo (CTG) method was adopted. Compound was dissolved with DMSO to 10 mM, and then diluted by medium. The upper medium of cells was removed, washed once with DPBS, added 2 mL of trypsin, and placed at 37° C. for a while. After cells were detached from the petri dish, 5 mL fresh medium was added and the suspension cells were centrifuged at 1000 rpm for 5 minutes at room temperature. Resuspend the cells with 5 mL of fresh culture medium, and use Countess™ to count cells. 200 nL compounds were added to a ultra-low attachment 384-well plate, and 40 μL cells were added to each well. After seven days of culture at 37° C., 5% CO2, CTG was added and the signal was recorded using Envision. The Inhibition rate is calculated using the following formula: Inhibition %=(Ave_H-Sample)/(Ave_H-Ave_L)×100%. Ave_H represents the average reading value of DMSO well, Sample represents the average reading value of compound well, and Ave_L represents the average reading value of 10 μM positive control well. The log value of concentration was taken as the X-axis, and the percentage inhibition rate was taken as the Y-axis. The dose-effect curve was fitted with log(inhibitor) vs. response-Variable slope of the analysis software GraphPad Prism 5. The IC50 value or inhibitory rate of each compound on cell proliferation was obtained.
On the technique in general: Cellular ATP, detected with luciferase, serves as a proxy for viable cell number.

Test [2] has as its system GP2D (human colon cancer cell line, KRAS G12D mutation). Put plainly: 3D cell proliferation inhibition (CellTiter-Glo), GP2D. The conditions noted are these: 168 h, 3D culture, seven days, CTG. The method, then: as §1, with “Compound activity was indicated by AGS (human gastric cancer cell line, KRAS G12D mutation), GP2D (human colon cancer cell line, KRAS G12D mutation), HPAC (human pancreatic cancer cell line, KRAS G12D mutation) and AsPCl (human pancreatic cancer cell line, KRAS G12D mutation) 3D cell proliferation inhibition. The Cell” for “The Cell”, “control well. […]” for “control well. The log value of concentration was taken as the X-axis, and the percentage inhibition rate was taken as the Y-axis. The dose-effect curve was fitted with log(inhibitor) vs. response-Variable slope of the analysis software GraphPad Prism 5. The IC50 value or inhibitory rate of each compound on cell proliferation was obtained.”

The test system of test [3] is HPAC (human pancreatic cancer cell line, KRAS G12D mutation). Put plainly: 3D cell proliferation inhibition (CellTiter-Glo), HPAC. The conditions noted are these: 168 h, 3D culture, seven days, CTG. Here is the method: as §1, with “Compound activity was indicated by AGS (human gastric cancer cell line, KRAS G12D mutation), GP2D (human colon cancer cell line, KRAS G12D mutation), HPAC (human pancreatic cancer cell line, KRAS G12D mutation) and AsPCl (human pancreatic cancer cell line, KRAS G12D mutation) 3D cell proliferation inhibition. The Cell” for “The Cell”

Test [4] concerns AsPC1 (human pancreatic cancer cell line, KRAS G12D mutation). Put plainly: 3D cell proliferation inhibition (CellTiter-Glo), AsPC1. The conditions noted are these: ASPC1, 168 h, 3D culture, seven days, CTG. The method, then:
as §1, with “Compound activity was indicated by AGS (human gastric cancer cell line, KRAS G12D mutation), GP2D (human colon cancer cell line, KRAS G12D mutation), HPAC (human pancreatic cancer cell line, KRAS G12D mutation) and AsPCl (human pancreatic cancer cell line, KRAS G12D mutation) 3D cell proliferation inhibition. The Cell” for “The Cell”

Molecules are shown by their SMILES.

One may read the inhibition as the relative decrease from the control value, in per cent. As usually defined, the IC50 is the concentration at which inhibition is half-maximal. Higher therefore signals a need for much substance.

For the compound `Oc1cc(-c2ncc3c(N4CC5CCC(C4)N5)nc(OCC45CCCN4CC(=C(F)F)C5)nc3c2F)c2c(F)cccc2c1` (centres unmarked) [Compound 4], the inhibition at 0.1 µM in test [1] is above 50%. Moreover, the results for the IC50 in test [2] and in test [3] were below 0.5 nM and below 15 nM, respectively.

As to `C#Cc1c(F)ccc2cc(O)cc(-c3ncc4c(N5CCNC6(CC6)C5)nc(OCC56CCCN5CC(=C(F)F)C6)nc4c3F)c12` (centres unmarked) [Compound 24], the IC50 in test [3] was below 70 nM. As to `C#Cc1c(F)ccc2cc(O)cc(-c3ncc4c(N5CC6CCC(C5)N6)nc(OCC56CCCN5CC(=C(F)F)C6)nc4c3F)c12` (centres unmarked) [Compound 20], in test [3], the half-inhibitory concentration (IC50) was below 5 nM. As to `C#Cc1c(F)ccc2cc(O)cc(-c3ncc4c(N5C6CCC5CNC6)nc(OCC56CCCN5CC(=C(F)F)C6)nc4c3F)c12` (centres unmarked) [Compound 23], the IC50 in test [3] was below 50 nM.

`C#Cc1cccc2cc(O)cc(-c3ncc4c(N5CC6CCC(C5)N6)nc(OCC56CCCN5CC(=C(F)F)C6)nc4c3F)c12` (centres unmarked) [Compound 10]: in test [1], the inhibition at 0.1 µM was above 50%. Also, the IC50 in test [2] is below 0.5 nM; in test [3] it was below 10 nM; in test [4] it was below 5 nM.

In turn, `C#Cc1c(F)ccc2cccc(-c3ncc4c(N5CC6CCC(C5)N6)nc(OCC56CCCN5CC(=C(F)F)C6)nc4c3F)c12` (centres unmarked) [Compound 12] gave an inhibition at 0.1 µM in test [1] above 50%. The IC50 in test [3] was below 70 nM. In test [3], `C#Cc1c(F)ccc2cc(OP(=O)(O)O)cc(-c3ncc4c(N5CC6CCC(C5)N6)nc(OCC56CCCN5CC(=C(F)F)C6)nc4c3F)c12` (centres unmarked) [Compound 29] came in with a half-inhibitory concentration (IC50) below 10 nM.

Consider `C#Cc1c(F)ccc2cc(OC(C)=O)cc(-c3ncc4c(N5CC6CCC(C5)N6)nc(OCC56CCCN5CC(=C(F)F)C6)nc4c3F)c12` (centres unmarked) [Compound 28], for which the half-inhibitory concentration (IC50) in test [3] was below 70 nM. Take `CCc1c(F)ccc2cccc(-c3ncc4c(N5CC6CCC(C5)N6)nc(OCC56CCCN5CC(=C(F)F)C6)nc4c3F)c12` (centres unmarked) [Compound 14]: the inhibition at 0.1 µM in test [1] is above 50%.

In turn, `C#Cc1c(F)ccc2cc(O)cc(-c3c(Cl)cc4c(N5CC6CCC(C5)N6)nc(OCC56CCCN5CC(=C(F)F)C6)nc4c3F)c12` (centres unmarked) [Compound 30] had an IC50 in test [3] below 25 nM. In the case of `C#Cc1c(F)ccc2cc(O)cc(-c3ncc4c(N5CCNC6(CC6)C5)nc(OC[C@@]56CCCN5C[C@H](F)C6)nc4c3F)c12` [Compound 22], the half-maximal inhibitory concentration (IC50) in test [4] was below 150 nM. In test [1], `FC(F)=C1CN2CCCC2(COc2nc(N3CC4CCC(C3)N4)c3cnc(-c4cccc5cccc(F)c45)c(F)c3n2)C1` (centres unmarked) [Compound 13] registered an inhibition at 0.1 µM above 50%. With `C#Cc1c(F)ccc2cc(O)cc(-c3ncc4c(N5C6CCC5CNC6)nc(OC[C@@]56CCCN5C[C@H](F)C6)nc4c3F)c12` [Compound 21], the 50% inhibitory concentration (IC50) in test [4] was below 100 nM. Turning to `Oc1cc(-c2ncc3c(N4CCNC5(CC5)C4)nc(OC[C@@]45CCCN4C[C@H](F)C5)nc3c2F)c2c(F)cccc2c1` [Compound 1], the inhibition at 0.1 µM in test [1] was above 50%.

(Values after patent US20250255868A1, “HETEROCYCLIC COMPOUND ACTING AS KRAS G12D INHIBITOR” (Hangzhou Innogate Pharma Co., Ltd., priority 2021, published 2025).)
